From patent US8981094B2, “Piperidine/piperazine derivatives” (Janssen Pharmaceutica N.V., priority 2007, dated 2015)

Molecular target: T1, human DGAT1 (Homo sapiens, UniProt O75907)
T1 construct: FLAG (N); made in house; host or cells: SF9 insect cells (pFastBac baculovirus); total cell membranes
T1 sequence (O75907 1-488): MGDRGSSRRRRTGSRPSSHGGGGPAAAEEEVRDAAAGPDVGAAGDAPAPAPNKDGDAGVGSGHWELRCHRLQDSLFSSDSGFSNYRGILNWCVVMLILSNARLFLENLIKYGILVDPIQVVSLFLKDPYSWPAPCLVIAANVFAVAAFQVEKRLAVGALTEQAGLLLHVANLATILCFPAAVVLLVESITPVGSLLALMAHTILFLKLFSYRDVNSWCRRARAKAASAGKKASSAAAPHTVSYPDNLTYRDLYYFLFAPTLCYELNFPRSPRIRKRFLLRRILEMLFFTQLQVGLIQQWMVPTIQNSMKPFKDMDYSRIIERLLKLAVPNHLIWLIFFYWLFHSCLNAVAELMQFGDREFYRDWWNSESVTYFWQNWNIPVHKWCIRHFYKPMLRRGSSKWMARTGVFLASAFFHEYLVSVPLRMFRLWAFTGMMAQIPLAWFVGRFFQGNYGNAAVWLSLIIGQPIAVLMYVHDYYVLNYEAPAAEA
Assay: Inhibition of DGAT1 activity, FlashPlate assay with DGAT1 membrane preparations and substrate micelles
Format: biochemical
Conditions: pIC50 = -logIC50, IC50 values expressed in M
From the text: A) Measurement of Inhibition of DGAT1 Activity by the Present Compounds
The inhibiting activity of the present compounds on DGAT1 activity was screened in a single well procedure assay using DGAT1 comprising membrane preparations and DGAT1 substrate comprising micelles and determining formed radio-active triacylglycerol coming in close proximity of a flashplate surface by radio luminescence.
Said assay is described in full detail in WO2006/067071, the content of which is incorporated herein by reference.
By DGAT1 activity is meant the transfer of coenzyme A activated fatty acids to the 3-position of 1,2-diacylglycerols, thus forming a triglyceride molecule, by enzyme DGAT1.
human DGAT1 (NM012079.2) was cloned into the pFastBac vector, containing translation start, a FLAG-tag at the N-terminus as described in literature and a viral Kozak sequence (AAX) preceding the ATG to improve expression in insect cells. Expression was done as described in literature (Cases, S., Smith, S. J., Zheng, Y., Myers H. M., Lear, S. R., Sande, E., Novak, S., Collins, C., Welch, C. B., Lusis, A. J., Erickson, S. K. and Farese, R. V. (1998) Proc. Natl. Acad. Sci. USA 95, 13018-13023.) using SF9 cells.
72 h transfected SF9 cells were collected by centrifugation (13000 rpm-15 min-4° C.) and lysed in 2×500 ml lysisbuffer (0.1M Sucrose, 50 mM KCl, 40 mM KH2PO4, 30 mM EDTA pH 7.2. Cells were homogenized by cell disruptor. After centrifugation 1380 rpm-15 min-4° C. (SN discarded), pellet was resuspended in 500 ml lysisbuffer and total cell membranes collected by ultracentrifugation at 34000 rpm(100 000 g) for 60 min (4° C.). The collected membranes were resuspended in lysis buffer, divided in aliquots and stored with 10% glycerol at −80° C. until use.
Add 1 ml dioleoyl-sn-glycerol (10 mg/ml) to 10 ml of L-α-phosphatidylcholine (1 mg/ml) and 10 ml of L-α-phosphatidyl-L-serine (1 mg/ml) in a thick glass recipient. Evaporate under nitrogen and put on ice for 15 minutes. Reconstitute in 10 ml Tris/HCl (10 mM, pH 7.4) by sonication on ice. The sonification process consists of sonification cycles of 10 seconds in the sonification bath followed by 10 seconds cool down on ice and repeating this sonification cycle till a homogeneous solution is obtained (takes about 15 minutes). The thus obtained micelles are stored at −20° C. till later use and contain DAG at a final concentration of 1.61 mM.
c) Substrate mix (for 1 384 well plate=3840 μl) • 612 μl micelles stock (51 μM final) • 16.6 μl oleoylCoA 9.7 mM • 23 μl [^3H]-oleoylCoA (49 Ci/mmol, 500 μCi/ml) • 3188.4 μl Tris pH 7.4, 10 mM
d) Enzyme mix (for 1 384 well plate=3520 μl) (5 μg/ml) • Add 11.73 μl of DGAT membrane stock (1500 μg/ml stock) to 3508 μl assay buffer.
e) Stop mix (for 1 384 well plate=7.68 ml) (250 mM) • Add 384 μl of N-ethylmaleimide (5M) to 3.456 ml DMSO 100%, and further dilute 3.84 ml of said solution with 3.84 ml DMSO 10%.
DGAT activity in membrane preparations was assayed in 50 mM Tris-HCl (pH 7.4), 150 mM MgCl2, 1 mM EDTA and 0.2% BSA, containing 50 μM DAG, 32 μg/ml PC/PS and 8.4 μM [^3H]-oleoylCoA (at a specific activity of 30 nCi/well) in a final volume of 50 μl in 384-well format using the red shifted Basic Image FlashPlate™ (Perkin Elmer Cat.No. SMP400).
In detail, 10 μl enzyme mix and 10 μl substrate mix were added to 30 μl of assay buffer, optionally in the presence of 1 μl DMSO (blank and controls) or 1 μl of the compound to be tested. This reaction mixture was incubated for 120 minutes at 37° C. and the enzymatic reaction stopped by adding 20 μl of the stop mix. The plates were sealed and the vesicles allowed to settle overnight at room temperature. Plates were centrifuged for 5 minutes at 1500 rpm and measured in Leadseeker. […]

| IC50 [µM] | SMILES |
| --- | --- |
| 0.0871 | O=C(CNc1ccccc1)Nc1ccc(C2CCN(C(=O)Nc3c(Cl)cccc3Cl)CC2)cc1 [Compound 100] |
| 0.155 | O=C(NCc1cccc(F)c1)c1ccc(N2CCN(C(=O)Cc3c(Cl)cccc3Cl)CC2)cc1 [Compound 247] |
| 0.0372 | O=C(CCCc1ccccc1)Nc1ccc(N2CCN(C(=O)Nc3c(Cl)cc(C(=O)NCCN4CCOCC4)cc3Cl)CC2)cc1 [Compound 310] |
| 0.0355 | O=C(CCCc1ccccc1)Nc1ccc(N2CCN(C(=O)Cc3c(Cl)cccc3Cl)CC2)cc1 [Compound 52] |
| 0.0589 | CC(C)C(CC(=O)Nc1ccc(C2CCN(C(=O)Nc3c(Cl)cccc3Cl)CC2)cc1)NC(=O)OC(C)(C)C (stereo not drawn) [Compound 215] |
| 0.0182 | O=C(CCc1ccco1)Nc1ccc(N2CCN(C(=O)Nc3c(Cl)cccc3Cl)CC2)cc1 [Compound 143] |
| 1.2 | O=C(CN1CCOCC1)Nc1ccc(C2CCN(C(=O)Nc3c(Cl)cccc3Cl)CC2)cc1 [Compound 111] |
| 0.138 | O=C(CCCc1ccccc1)Nc1ccc(N2CCN(C(=O)Nc3ccccc3C(F)(F)F)CC2)cc1 [Compound 70] |
| 0.107 | CCC(C)C(NC(=O)OC(C)(C)C)C(=O)Nc1ccc(C2CCN(C(=O)Nc3c(Cl)cccc3Cl)CC2)cc1 (stereo not drawn) [Compound 213] |
| 6.03 | O=C(CCCc1ccccc1)Nc1ccc(N2CCN(C(=O)C(O)c3ccc(Br)cc3)CC2)cc1 (stereo not drawn) [Compound 349] |
| 0.129 | O=C(CCCc1ccccc1)Nc1ccc(N2CCN(C(=O)C(O)c3cccc(F)c3F)CC2)cc1 (stereo not drawn) [Compound 327] |
| 0.0105 | COCCN(C)C(=O)c1cc(Cl)c(NC(=O)N2CCN(c3ccc(NC(=O)CCCc4ccccc4)cc3)CC2)c(Cl)c1 [Compound 291] |
| 0.0148 | CN(C)C(=O)CN(C)C(=O)c1cc(Cl)c(NC(=O)N2CCN(c3ccc(NC(=O)CCCc4ccccc4)cc3)CC2)c(Cl)c1 [Compound 296] |
| 3.39 | CN(C)C(=O)CCC(=O)Nc1ccc(N2CCN(C(=O)Nc3c(Cl)cccc3Cl)CC2)cc1 [Compound 137] |
| 0.0347 | CC(C)(C)OC(=O)NC1(C(=O)Nc2ccc(C3CCN(C(=O)Nc4c(Cl)cccc4Cl)CC3)cc2)CCCC1 [Compound 216] |
| 0.245 | C#CCCC(=O)Nc1ccc(C2CCN(C(=O)Nc3c(Cl)cccc3Cl)CC2)cc1 [Compound 129] |
| 0.0214 | O=C(CCCc1ccccc1)Nc1ccc(N2CCN(C(=O)Nc3c(Cl)cc(C(=O)NCc4ccncc4)cc3Cl)CC2)cc1 [Compound 303] |
| 0.00417 | COCCN1CCN(C(=O)c2cc(Cl)c(NC(=O)N3CCN(c4ccc(NC(=O)CCCc5ccccc5)cc4)CC3)c(Cl)c2)CC1 [Compound 275] |
| 0.0447 | COc1ccc(CC(=O)Nc2ccc(N3CCN(C(=O)Nc4c(Cl)cc(OC)cc4OC)CC3)cc2)cc1 [Compound 191] |
| 0.0151 | CCOC(=O)CCCC(=O)Nc1ccc(N2CCN(C(=O)Nc3c(Cl)cccc3Cl)CC2)cc1 [Compound 297] |
| 1.41 | COCCOCC(=O)N(C)CC(=O)Nc1ccc(N2CCN(C(=O)Nc3c(Cl)cccc3Cl)CC2)cc1 [Compound 163] |
| 0.00575 | COc1ccc(CC(=O)Nc2ccc(N3CCN(C(=O)Nc4c(Cl)cccc4Cl)CC3)cc2)cc1 [Compound 144] |
| 0.794 | O=C(CN1CCCCC1)Nc1ccc(C2CCN(C(=O)Nc3c(Cl)cccc3Cl)CC2)cc1 [Compound 112] |

| IC50 [µM] | SMILES |
| --- | --- |
| 3.72 | O=C(CCCc1ccccc1)Nc1ccc(N2CCN(C(=O)C(O)c3ccc(F)c(F)c3)CC2)cc1 (stereo not drawn) [Compound 341] |
| 0.229 | CCc1cccc(N2CCN(CC(=O)Nc3ccc(C4CCN(C(=O)Nc5c(Cl)cccc5Cl)CC4)cc3)CC2)c1 [Compound 106] |
| 0.0977 | CC(C)(C)OC(=O)NCCC(=O)Nc1ccc(C2CCN(C(=O)Nc3c(Cl)cccc3Cl)CC2)cc1 [Compound 214] |
| 0.0105 | CN1CCN(C(=O)c2cc(Cl)c(NC(=O)N3CCN(c4ccc(NC(=O)CCCc5ccccc5)cc4)CC3)c(Cl)c2)CC1 [Compound 290] |
| 0.347 | O=C(CNCc1ccc(F)cc1)Nc1ccc(C2CCN(C(=O)Nc3c(Cl)cccc3Cl)CC2)cc1 [Compound 118] |
| 0.00676 | CC(C)(C)OC(=O)CCC(=O)Nc1ccc(N2CCN(C(=O)Nc3c(Cl)cccc3Cl)CC2)cc1 [Compound 279] |
| 0.389 | O=C(CCN1CCOCC1)Nc1ccc(N2CCN(C(=O)Nc3c(Cl)cccc3Cl)CC2)cc1 [Compound 136] |
| 0.204 | CCCCCCCNCC(=O)Nc1ccc(C2CCN(C(=O)Nc3c(Cl)cccc3Cl)CC2)cc1 [Compound 115] |
| 0.0339 | O=C(CCCc1ccccc1)Nc1ccc(N2CCN(C(=O)Nc3c(Cl)cc(C(=O)O)cc3Cl)CC2)cc1 [Compound 27] |
| 5.62 | COc1ccc(C)cc1NC(=O)N1CCN(c2ccc(NC(=O)CCCc3ccccc3)cc2)CC1 [Compound 76] |
| 7.24 | O=C(CC1CCCN1)Nc1ccc(C2CCN(C(=O)Nc3c(Cl)cccc3Cl)CC2)cc1 (stereo not drawn) [Compound 149] |
| 2.09 | O=C(CCN1CCCCC1)Nc1ccc(C2CCN(C(=O)Nc3c(Cl)cccc3Cl)CC2)cc1 [Compound 128] |
| 0.245 | COc1ccc(CC(=O)Nc2ccc(N3CCN(C(=O)Cc4c(Cl)cc(CN5CCCC5)cc4Cl)CC3)cc2)cc1 [Compound 351] |
| 0.0468 | O=C(CCN(Cc1ccccc1Cl)S(=O)(=O)c1ccccc1[N+](=O)[O-])Nc1ccc(N2CCN(C(=O)Nc3c(Cl)cccc3Cl)CC2)cc1 [Compound 6] |
| 0.038 | O=C(CCc1ccco1)Nc1ccc(C2CCN(C(=O)Nc3c(Cl)cccc3Cl)CC2)cc1 [Compound 133] |
| 7.08 | CC(N)C(=O)Nc1ccc(C2CCN(C(=O)Nc3c(Cl)cccc3Cl)CC2)cc1 (stereo not drawn) [Compound 148] |
| 0.0123 | O=C(CCCc1ccccc1)Nc1ccc(N2CCN(C(=O)Nc3c(Cl)cc(C(=O)N4CCOCC4)cc3Cl)CC2)cc1 [Compound 294] |
| 0.02 | COc1ccc(CC(=O)Nc2ccc([N+]3([O-])CCN(C(=O)Nc4c(Cl)cc(C[N+]5([O-])CCCC5)cc4Cl)CC3)cc2)cc1 [Compound 300] |
| 0.0257 | CCCCCCCN(C)CC(=O)Nc1ccc(C2CCN(C(=O)Nc3c(Cl)cccc3Cl)CC2)cc1 [Compound 99] |
| 0.00324 | CC(O)c1cc(Cl)c(NC(=O)N2CCN(c3ccc(NC(=O)CCCc4ccccc4)cc3)CC2)c(Cl)c1 (single isomer, unassigned) [Compound 271] |
| 6.92 | NCCC(=O)Nc1ccc(C2CCN(C(=O)Nc3c(Cl)cccc3Cl)CC2)cc1 [Compound 150] |
| 0.0589 | O=C(CCCc1ccccc1)Nc1ccc(N2CCN(C(=O)C(O)c3c(Cl)cccc3Cl)CC2)cc1 (stereo not drawn) [Compound 315] |
